{"source": "patent US5786335A", "about": "“Sulfhydryl containing peptides for treating vascular disease” (Warner-Lambert Company, priority 1996, dated 1998)", "biological_target": "Lp(a) formation (coupling between apo(a) and LDL) (Homo sapiens, UniProt P08519)", "sequence (P08519 20-2040)": "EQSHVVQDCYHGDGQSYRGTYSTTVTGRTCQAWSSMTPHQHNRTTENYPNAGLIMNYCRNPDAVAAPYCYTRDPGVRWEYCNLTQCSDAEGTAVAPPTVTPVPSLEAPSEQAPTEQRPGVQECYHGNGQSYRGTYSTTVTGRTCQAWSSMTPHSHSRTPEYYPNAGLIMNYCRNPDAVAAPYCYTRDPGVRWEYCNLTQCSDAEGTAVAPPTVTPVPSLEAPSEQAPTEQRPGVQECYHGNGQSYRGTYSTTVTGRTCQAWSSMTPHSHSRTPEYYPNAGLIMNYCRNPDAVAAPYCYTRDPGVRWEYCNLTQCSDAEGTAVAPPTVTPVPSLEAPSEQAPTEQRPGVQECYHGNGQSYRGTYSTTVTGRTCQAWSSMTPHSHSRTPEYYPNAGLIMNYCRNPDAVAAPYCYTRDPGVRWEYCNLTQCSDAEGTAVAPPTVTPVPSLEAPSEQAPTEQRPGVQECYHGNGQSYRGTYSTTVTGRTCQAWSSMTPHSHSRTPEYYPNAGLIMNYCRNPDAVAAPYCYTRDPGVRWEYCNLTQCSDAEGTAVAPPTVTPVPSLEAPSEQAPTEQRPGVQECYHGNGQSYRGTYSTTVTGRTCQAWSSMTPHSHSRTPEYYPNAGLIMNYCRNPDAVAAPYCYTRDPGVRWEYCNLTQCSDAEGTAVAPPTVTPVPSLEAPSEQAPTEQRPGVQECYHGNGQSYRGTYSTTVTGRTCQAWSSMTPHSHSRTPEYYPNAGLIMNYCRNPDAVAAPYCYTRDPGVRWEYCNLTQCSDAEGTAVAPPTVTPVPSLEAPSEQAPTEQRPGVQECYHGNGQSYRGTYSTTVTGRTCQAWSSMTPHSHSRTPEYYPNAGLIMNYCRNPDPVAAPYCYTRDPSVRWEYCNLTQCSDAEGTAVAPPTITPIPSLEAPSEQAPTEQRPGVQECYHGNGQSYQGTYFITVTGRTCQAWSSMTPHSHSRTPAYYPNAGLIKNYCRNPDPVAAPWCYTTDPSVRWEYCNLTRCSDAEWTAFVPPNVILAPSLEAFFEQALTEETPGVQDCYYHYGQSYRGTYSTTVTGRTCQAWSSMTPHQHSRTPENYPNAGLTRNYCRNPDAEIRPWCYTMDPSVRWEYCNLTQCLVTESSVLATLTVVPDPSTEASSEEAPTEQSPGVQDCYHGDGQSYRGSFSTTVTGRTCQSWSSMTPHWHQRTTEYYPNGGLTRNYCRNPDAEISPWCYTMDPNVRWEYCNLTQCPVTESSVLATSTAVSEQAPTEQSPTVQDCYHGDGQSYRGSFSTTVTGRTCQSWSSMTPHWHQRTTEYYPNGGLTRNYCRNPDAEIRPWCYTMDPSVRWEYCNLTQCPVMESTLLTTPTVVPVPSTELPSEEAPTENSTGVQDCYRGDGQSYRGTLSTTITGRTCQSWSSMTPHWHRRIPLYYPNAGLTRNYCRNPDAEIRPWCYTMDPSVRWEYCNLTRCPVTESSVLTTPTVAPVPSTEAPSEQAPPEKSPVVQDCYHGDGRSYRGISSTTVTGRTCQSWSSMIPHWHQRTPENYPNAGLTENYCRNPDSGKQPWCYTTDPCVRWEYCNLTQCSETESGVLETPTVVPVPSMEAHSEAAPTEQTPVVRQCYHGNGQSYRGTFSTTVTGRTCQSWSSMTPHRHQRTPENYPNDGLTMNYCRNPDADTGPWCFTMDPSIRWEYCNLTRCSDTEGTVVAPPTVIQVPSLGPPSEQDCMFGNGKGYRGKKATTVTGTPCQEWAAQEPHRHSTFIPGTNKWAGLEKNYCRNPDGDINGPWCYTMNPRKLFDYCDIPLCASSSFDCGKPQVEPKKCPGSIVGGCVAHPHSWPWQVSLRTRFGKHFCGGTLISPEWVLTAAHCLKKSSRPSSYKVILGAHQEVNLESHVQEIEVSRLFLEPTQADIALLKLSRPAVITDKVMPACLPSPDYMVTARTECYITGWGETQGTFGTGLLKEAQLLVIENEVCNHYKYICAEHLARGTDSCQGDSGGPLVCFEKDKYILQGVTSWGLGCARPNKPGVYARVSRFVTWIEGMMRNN", "assay": "in vitro Lp(a) formation assay: coupling of recombinant human apo(a) with LDL, western blot with densitometry or visual inspection", "format": "biochemical", "parameters": "key to Relative Activity: An easily detectable change from control was assigned as (+); a marked change from control was assigned as (++)", "conditions": "for inhibition at 125 µM: 125 μM peptide, densitometry of Lp(a) bands; for inhibition at 125 µM / IC50: 37° C. for 30 minutes; for IC50: western blot, read-out: IC50 (concentration required to inhibit 50% of Lp(a) formation)", "description": "As pointed out above, the peptides of this invention are useful for treating vascular diseases due to their ability to inhibit formation of Lp(a). The compounds have been evaluated in an in vitro assay which established that the subject compounds are potent inhibitors of Lp(a) formation. The assay was carried out by mixing approximately equal quantities of recombinant human apo(a) with low-density lipoprotein (LDL) in a […] microcentrifuge tube. Control vessels contained no invention peptide, whereas test vessels contained a peptide of Formula I. The mixtures were incubated at 37° C. for 30 minutes. The coupling between apo(a) and LDL was quenched by addition of sodium dodecylsulfate (SDS)-PAGE loading buffer. The mixture is next resolved on 4% polyacrylamide gels, and Lp(a) is detected by western blotting using a monospecific human Lp(a) antibody. The intensity of the Lp(a) bands on the blots is measured by a commercial densitometer.\nTable I below gives the percent inhibition of Lp(a) formation at 125 μM concentration of representative peptides of the invention, as well as the concentration of representative compounds required to inhibit 50% of Lp(a) formation (IC50).\nAdditional compounds were evaluated in the above assay, and the western blots were visually inspected for changes in Lp(a) particle formation as a consequence of peptide mediated inhibition. Experimental lanes were visually compared to control lanes and assessed as follows: An easily detectable change from control was assigned as (+); a marked change from control was assigned as (++).", "note": "Residues, ends and D or L forms follow the SMILES beside them. No end group written: not given here."}
{"compound": "CC(=O)N[C@@H](CS)C(=O)N[C@@H](Cc1ccc(O)cc1)C(=O)N[C@@H](CCCCN)C(N)=O", "note": "[Ac--Cys--Tyr--Lys--NH2] (Ac-Cys-Tyr-Lys-NH2)", "values": [{"measurement": "Relative Activity", "setting": "western blots visually inspected, experimental lanes compared to control lanes", "result": "+"}]}
{"compound": "NCCCC[C@H](NC(=O)[C@H](Cc1ccc(O)cc1)NC(=O)[C@@H](N)CS)C(=O)O", "note": "[Cys--Tyr--Lys] (H-Cys-Tyr-Lys-OH)", "values": [{"measurement": "inhibition at 125 µM", "result": 90, "unit": "%"}, {"measurement": "IC50", "result": 50, "unit": "µM"}]}
{"compound": "AQCYK [Ala--Gln--Cys--Tyr--Lys]", "values": [{"measurement": "inhibition at 125 µM", "result": 36.9, "unit": "%"}]}
{"compound": "IACYK [Ile--Ala--Cys--Tyr--Lys]", "values": [{"measurement": "inhibition at 125 µM", "result": 29.8, "unit": "%"}]}
{"compound": "IQCAK [Ile--Gln--Cys--Ala--Lys]", "values": [{"measurement": "inhibition at 125 µM", "result": 76.4, "unit": "%"}]}
{"compound": "IQCYK [Ile--Gln--Cys--Tyr--Lys, Ile-Gln-Cys-Tyr-Lys]", "values": [{"measurement": "inhibition at 125 µM", "result": 50.1, "unit": "%"}, {"measurement": "IC50", "result": 109, "unit": "µM"}]}
